Data from patent publication US10874743B2, “IRAK degraders and uses thereof” (Kymera Therapeutics, Inc., priority 2017, dated 2020).

Assays:
IRAK4 [1] = target: T1, IRAK4 (Homo sapiens, UniProt Q9NWZ3); experiment: PBMC degradation assay (western blot, % IRAK4 degraded after 4 hours); assay type: cell-based; settings: human PBMCs
T1 sequence (Q9NWZ3 1-460): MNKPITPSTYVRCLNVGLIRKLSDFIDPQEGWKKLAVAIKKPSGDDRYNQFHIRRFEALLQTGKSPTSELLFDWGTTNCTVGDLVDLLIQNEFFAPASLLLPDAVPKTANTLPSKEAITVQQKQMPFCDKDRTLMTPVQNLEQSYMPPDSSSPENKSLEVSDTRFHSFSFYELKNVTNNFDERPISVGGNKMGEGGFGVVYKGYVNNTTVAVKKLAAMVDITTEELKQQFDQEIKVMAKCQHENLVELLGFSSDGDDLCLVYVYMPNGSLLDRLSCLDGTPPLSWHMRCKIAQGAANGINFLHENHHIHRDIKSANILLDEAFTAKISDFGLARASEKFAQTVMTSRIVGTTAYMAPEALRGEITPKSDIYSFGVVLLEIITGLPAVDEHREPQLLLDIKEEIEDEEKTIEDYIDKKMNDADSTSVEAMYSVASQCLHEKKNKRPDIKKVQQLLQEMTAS
Experimental: Protocol summary of PBMC degradation studies from compound treatment through quantitation.
PBMC culture medium: Human peripheral blood mononuclear cells (PBMCs): RPMI+10% FBS (Heat-inactivated)+1% P/S.
Cells were cultured at a minimum of 2.5×10^6 c/mL. • PBMCs were incubated @ 37° C./5% CO2 and allowed to rest overnight. • Following overnight recovery, a cell count/viability assessment by trypan blue exclusion was performed. Cells densities were adjusted back to 2.5×10^6 c/mL (proceed with plating only if viability >80%). • In a 6 well plate, 2.0 mL of cells were added to each well for a minimum of 5×10^6 CT per treatment condition. Compounds dilutions were prepared from 20 mM stock and were added at a final 1000× dilution (0.1% DMSO concentration). • At the end of treatment, cells were harvested and spun @ 1800 rpm for 5 min. 1×PBS wash and spun again @ 1800 rpm for 5 min. Cell pellets were frozen and stored at −80° C. until further processing. • Lysates were generated by resuspending in lysis buffer. Protein quantification was performed with a BCA kit. • 20 μg of protein were loaded per lane and run on a 26-well 4-12% Bis-Tris SDS-page gel. • Transfers were performed on PVDF membranes using the BioRad Mixed MW turbo program for 7 min. • Membranes were blocked for one hour on a rocker at room temperature. • Primary antibodies were incubated overnight at 4° C. on a rocker. • Membranes were washed 3×TBST, 5 min each. • Secondaries were added and incubated for one hour on a rocker at room temperature. • Membranes were washed 3×TBST, 5 min each and rinsed well with deionized H2O. Membranes were scanned using the Licor Odessey CLx and bands were quantified using Image Studio Lite Version 5.2 software.
PBMC results at 4 hours. The letter codes indicate the percentage of IRAK4 degraded after 4 hours: A (>50% degradation), B (>20-50% degradation) and C (<20% degradation)

IRAK4 [2] = target: T1, IRAK4; experiment: THP-1 degradation assay (western blot, % IRAK4 degraded after 24 hours); assay type: cell-based; parameters: endogenous in cells; settings: THP-1 cells
Experimental: Compounds were reconstituted in DMSO to make stock solutions at concentration of 60 mM. THP-1 and OCI-LY10 cells were maintained in RPMI-1640 medium containing 10% FBS, 0.5 μM 2-ME or 20% FBS, 55 μM 2-ME, and 1% L-Glutamine respectively.
Cells were seeded into 6-well plates with 5e6 cells per well. 200 μL of diluted compounds were added to cells to the final concentration of 0.003-10 μM. After 4 or 24 hour-incubation at 37° C., cells were collected into 2 mL Eppendorf tubes and centrifuged at 1,000 rpm for 5 min. The cell pellets were washed with 1×DPBS once and resuspended in 60 μL lysis buffer. The cells were lysed on ice for 10 min, then centrifuged at 14,000 rpm for 10 min at 4° C. and the supernatants were collected for western blots. For THP-1 cells, the lysis buffer contained 40 mM pH 7.4 HEPES, 140 mM NaCl, 2.5 mM EDTA, 1% NP-40, 0.1% SDS, and protease inhibitor cocktail (Roche, Cat. No. 05892791001). For OCI-LY10 cells, RIPAbuffer (Thermo Fisher, 89900) with Halt Protease and Phosphatase Inhibitor Cocktail (Thermo Fisher, 78446) was applied.
The protein concentration of cell lysates was quantified with Pierce™ BCA Protein Assay Kit (Pierce, 23227). Albumin standards at different concentrations were prepared, involving 2,000 ug/mL, 1,500 ug/mL, 1,000 ug/mL, 750 ug/mL, 500 ug/mL, 250 ug/mL, 125 ug/mL, and 25 ug/mL. BCA working reagents were prepared by mixing BCA reagent A with reagent B in 50:1 ratio. 200 μL of the BCA working reagents were added to 25 μL of BCA standard or cell lysates in microplate, and mixed thoroughly on a plate shaker for 30 seconds. After incubation at 37° C. for 30 min, the absorbance of samples at 562 nm were measured with EnVision Plate Reader.
Protein lysates were prepared in NuPAGE™ LDS sample buffer and NuPAGE™ sample reducing agent, and incubated at 95° C. for 5 min. For western blots, 20-25 μg of total proteins were resolved in 4-12% Bis-Tris gels (Introgen, WG1403A) or 10% Bis-Tris Midi gels (Invitrogen, WG1202BOX) running with 1×MOPS SDS running buffer (Invitrogen, NP0001) or 1×MES SDS running buffer (Invitrogen, NP0002). The proteins were transferred to low fluorescence PVDF membranes using the Trans-Blot Turbo Transfer System. Membranes were then blocked in Odyssey blocking buffer at RT for 1 h followed by primary incubation at 4° C. overnight. The primary antibodies were IRAK1 rabbit monoclonal antibody (CST, #4504S, 1:500), IRAK3 rabbit polyclonal antibody (CST, #4369, 1:500), IRAK4 rabbit polyclonal antibody (CST, #4363S, 1:1,000), MyD88 rabbit monoclonal antibody (Abcam, Ab133739, 1:2,000), j3-actin mouse monoclonal antibody (Sigma, A5441, 10,000), and Gapdh mouse monoclonal antibody (Millipore, MAB374, 1:5,000). Membranes were washed three times with 1×TBST, and then incubated with IR Dye 800 CW Goat anti-rabbit (Licor, #926-32211) and IR Dye 700 CW Goat anti-mouse (Licor, #926-68070) secondary antibodies in 1:10,000 dilution at RT for 1 h. The western blot images were obtained using Odyssey Imaging System.
THP-1 results at 24 hours. The letter codes indicate the percentage of IRAK4 degraded after 24 hours: A (>50% degradation), B (>20-50% degradation) and C (<20% degradation)

| PBMC % IRAK4 Degradation (IRAK4 [1]) | THP-1 24 h % IRAK4 Degradation (IRAK4 [2]) | Structure (SMILES) |
| --- | --- | --- |
| B (>20-50% degradation) |  | NC(=O)c1nn(-c2ccc(C(=O)NCCCCCCCCNC(=O)COc3cccc4c3C(=O)N(C3CCC(=O)NC3=O)C4=O)cc2)cc1NC(=O)c1coc(-c2ccnc(NCC(F)(F)F)c2)n1 (centres unmarked) [I-109] |
|  | C (<20% degradation) | Cc1ncsc1-c1ccc(CNC(=O)[C@@H]2C[C@@H](O)CN2C(=O)[C@@H](NC(=O)COCCOCCOCCOCCNC(=O)Cn2ccc3c(Nc4nc(N[C@@H]5CCCC[C@@H]5N)cc5[nH]cnc(=O)c45)cccc32)C(C)(C)C)cc1 [I-195, (2S,4R)-1-[(2S)-2-[2-[2-[2-[2-[2-[[2-[4-[[7-[[(1R,2S)-2-Aminocyclohexylamino]-4-oxo-3H-pyrido[4,3-d]pyrimidin-5-yl]amino]indol-1-yl]acetyl]amino]ethoxy]ethoxy]ethoxy]ethoxy]acetyl]amino]-3,3-dimethyl-butanoyl]-4-hydroxy-N-[[4-(4-methylthiazol-5-yl)phenyl]methyl]pyrrolidine-2-carboxamide] |
|  | B (>20-50% degradation) | O=C1CCC(N2C(=O)c3cccc(NCCOCCOCCOCC(F)CNC(=O)c4cnc(Nc5ccc6cnccc6n5)cc4NC4CC4)c3C2=O)C(=O)N1 (centres unmarked) [I-49] |
|  | C (<20% degradation) | Cc1ncsc1-c1ccc(CNC(=O)[C@@H]2C[C@@H](O)CN2C(=O)C(NC(=O)COCCOCCOCCOCCNC(=O)[C@H]2CC[C@H](NC(=O)c3cnc(Nc4ccc5cnccc5n4)cc3NC3CC3)CC2)C(C)(C)C)cc1 (some centres unmarked) [I-13] |
|  | C (<20% degradation) | Cc1ncsc1-c1ccc(CNC(=O)[C@@H]2C[C@@H](O)CN2C(=O)[C@H](NC(=O)CCCCCCNC(=O)[C@H]2CC[C@H](NC(=O)c3cnc(Nc4ccc5cnccc5n4)cc3NC3CC3)CC2)C(C)(C)C)cc1 [I-10, 6-((1,6-naphthyridin-2-yl)amino)-4-(cyclopropylamino)-N-((1S,4r)-4-((7-(((S)-1-((2S,4R)-4-hydroxy-2-((4-(4-methylthiazol-5-yl)benzyl)carbamoyl)-pyrrolidin-1-yl)-3,3-dimethyl-1-oxobutan-2-yl)amino)-7-oxoheptyl)carbamoyl)cyclohexyl)-nicotinamide] |
|  | C (<20% degradation) | Cc1ncsc1-c1ccc(CNC(=O)[C@@H]2C[C@@H](O)CN2C(=O)[C@H](NC(=O)CCCCCCCCCCCNC(=O)[C@H]2CC[C@H](NC(=O)c3cnc(Nc4ccc5cnccc5n4)cc3NC3CC3)CC2)C(C)(C)C)cc1 [I-12] |
|  | C (<20% degradation) | NC(=O)c1nnc(N[C@@H]2CCCC[C@@H]2N)nc1Nc1cccc2c1ccn2CCOCCOCCOCCOCCNc1cccc2c1C(=O)N(C1CCC(=O)NC1=O)C2=O (stereo partly drawn) [I-194, 3-[[(1R,2S)-2-aminocyclohexyl]amino]-5-[[1-[2-[2-[2-[2-[2-[[2-(2,6-dioxo-3-piperidyl)-1,3-dioxo-isoindolin-4-yl]amino]ethoxy]ethoxy]ethoxy]ethoxy]ethyl]indol-4-yl]amino]-1,2,4-triazine-6-carboxamide] |
|  | C (<20% degradation) | O=C(CN1CCC(NC(=O)c2cnc(Nc3ccc4cnccc4n3)cc2NC2CC2)CC1)NCCOCCOCCNc1cccc2c1C(=O)N(C1CCC(=O)NC1=O)C2=O (centres unmarked) [I-19, 6-((1,6-naphthyridin-2-yl)amino)-4-(cyclopropylamino)-N-(1-(2-((2-(2-(2-((2-(2,6-dioxopiperidin-3-yl)-1,3-dioxoisoindolin-4-yl)amino)ethoxy)ethoxy)ethyl)amino)-2-oxoethyl)piperidin-4-yl)nicotinamide] |
|  | B (>20-50% degradation) | O=C1CCC(N2C(=O)c3cccc(NCCOCCOCCOCCOCCOCC(F)CNC(=O)c4cnc(Nc5ccc6cnccc6n5)cc4NC4CC4)c3C2=O)C(=O)N1 (centres unmarked) [I-48] |
|  | C (<20% degradation) | Cc1ncsc1-c1ccc(CNC(=O)[C@@H]2C[C@@H](O)CN2C(=O)[C@@H](NC(=O)COCCOCCn2ccc3c(Nc4nc(N[C@@H]5CCCC[C@@H]5N)cc5[nH]cnc(=O)c45)cccc32)C(C)(C)C)cc1 [I-189, (2S,4R)-1-[(2S)-2-[[2-[2-[2-[4-[[7-[[(1R,2S)-2-aminocyclohexyl]amino]-4-oxo-3H-pyrido[4,3-d]pyrimidin-5-yl]amino]indol-1-yl]ethoxy]ethoxy]acetyl]amino]-3,3-dimethyl-butanoyl]-4-hydroxy-N-[[4-(4-methylthiazol-5-yl)phenyl]methyl]pyrrolidine-2-carboxamide] |
|  | C (<20% degradation) | Cc1ncsc1-c1ccc(CNC(=O)[C@@H]2C[C@@H](O)CN2C(=O)[C@H](NC(=O)CCCCCOCCCCCCCNC(=O)[C@H]2CC[C@H](NC(=O)c3cnc(Nc4ccc5cnccc5n4)cc3NC3CC3)CC2)C(C)(C)C)cc1 [I-14] |
|  | C (<20% degradation) | O=C(COc1cccc2c1C(=O)N(C1CCC(=O)NC1=O)C2=O)NCCCCCOCCCCCNC(=O)[C@H]1CC[C@H](NC(=O)c2cnc(Nc3ccc4cnccc4n3)cc2NC2CC2)CC1 (some centres unmarked) [I-3] |
|  | B (>20-50% degradation) | O=C1CCC(N2C(=O)c3cccc(NCCOCCOCCOCCOCCN4CCN(CCOCC(F)CNC(=O)c5cnc(Nc6ccc7cnccc7n6)cc5NC5CC5)CC4)c3C2=O)C(=O)N1 (centres unmarked) [I-47] |
|  | A (>50% degradation) | COc1cc(Nc2nc(N[C@H]3CCCC[C@H]3N)n3ccnc3c2C(N)=O)cc(OCCOCCOCCOCC(=O)N[C@H](C(=O)N2C[C@H](O)C[C@H]2C(=O)NCc2ccc(-c3scnc3C)cc2)C(C)(C)C)c1 [I-162, 5-[[(1S,2R)-2-aminocyclohexyl]amino]-7-[3-[2-[2-[2-[2-[[(1S)-1-[(2S,4R)-4-hydroxy-2-[[4-(4-methylthiazol-5-yl)phenyl]methylcarbamoyl]pyrrolidine-1-carbonyl]-2,2-dimethyl-propyl]amino]-2-oxo-ethoxy]ethoxy]ethoxy]ethoxy]-5-methoxy-anilino]imidazo[1,2-c]pyrimidine-8-carboxamide] |
